Results taken from patent US20220354852A1, “TARGETING WNT SIGNALING FOR IMPROVED GLIOMA IMMUNOTHERAPY” (CITY OF HOPE, priority 2021, published 2022).
“Also recorded” adds a separate entry of the source.

What was measured:
[1] = test system: PBT138 patient tumor-derived glioma cells; assay: In vitro cytotoxicity assay, IL13Rα2-CAR T cells ± ICG-001; assay type: cell-based, human
Method: FIG. 2. Combinational strategy of CAR T cell-mediated tumor-antigen targeting with ICG-001 induced differentiation in glioma. […] (B) Cytotoxicity of HER2 CAR-T cells and tumor cells (1:5 ratio) was enhanced by ICG-001 at concentrations 1.25-5 μM. (C) Treatment of PBT138 patient glioma tumors with CAR T IL13Rα2+/−ICG-001.
It has also been observed that ICG-001-induced differentiation of PBT017 and PBT138 (data not shown).

[2] = test system: PBT147 and PBT030 metabolic pathways; assay: NanoString nCounter human metabolic panel of PBT147 and PBT030 cells; assay type: cell-based
Method: FIG. 8. NanoString analysis of human metabolic pathways after treatment with ICG-001. The profiling panel consists of 770 genes targeting six fundamental themes: neurotransmission, neuron-glia interactions, neuroplasticity, cell structure integrity, neuroinflammation, and metabolism. Each assay also includes six positive and eight negative RNA assay controls, plus ten mRNA housekeeping controls. RNA was hybridized with the Codeset from the gene panel at 65° C. for 16 h. The post-hybridization probe-target mixture were quantified using the nCounter Digital Analyzer, and all data analysis was performed on nSolver (NanoString Technologies) metabolic panel. All raw data was normalized with internal positive and negative controls to eliminate variability unrelated to the samples, then normalized to the selected housekeeping genes using Geometric Means methods.
FIG. 17. (A-F) NanoString analysis of human metabolic pathways after treatment with ICG-001. The profiling panel consisted of 770 genes targeting six fundamental themes: neurotransmission, neuron-glia interactions, neuroplasticity, cell structure integrity, neuroinflammation, and metabolism. Each assay also included six positive and eight negative RNA assay controls and ten mRNA housekeeping controls. RNA was hybridized with the Codeset from the gene panel at 65° C. for 16 h. The post-hybridization probe-target mixture was quantified using the nCounter Digital Analyzer and all data analysis was performed using the nSolver metabolic panel (NanoString Technologies). All raw data was normalized with internal positive and negative controls to eliminate variability unrelated to the samples and then normalized to the selected housekeeping genes using Geometric Means methods. PBT147 and PBT030 cells were treated with ICG-001 at […] for 24 h (data not shown) or 72 h. Total RNA was collected for NanoString analysis from triplicate samples.
PBT147 and PBT030 PBT cells were treated with ICG-001 (0, 5, or 10 μM) for 24-72 h. RNA expression was then analyzed using the NanoString nCounter platform (NanoString Technologies) by digitally detecting and counting in a single reaction without amplification using the NanoString human metabolic panel (City of Hope Molecular Pathology Core) (Geiss, Bumgarner et al. 2008). The data indicates change in a several metabolic markers and antigen presentation increased by PBT cells lines after treatment with ICG-001 at both time points. […] An increased p53 pathway and mitochondrial respiration was also observed at both time points and both cell lines.
ICG-001 Affects PBT tumor metabolism. The N-termini of the Kat3 coactivators, i.e. CBP and p300, provide a highly evolutionarily conserved hub to integrate multiple signaling cascades to coordinate cellular metabolism with the regulation of cellular status and function and specifically that p300/β-Catenin mediated transcription is required to enhance mitochondrial OXPHOS during the initiation of cellular differentiation (Hu et al. 2021, Thomas & Kahn 2016). Therefore, patient-derived GBM cell lines PBT147 and PBT030 lines were treated with ICG-001 (0, 5, or 10 μM) for 24 h or 72 h (FIG. 17 shown differences in both cells lines at 72 h). RNA isolated from the treated PBT cells was analyzed using the NanoString nCounter metabolic panel (NanoString Technologies). This approach digitally detects and counts gene transcripts in a single reaction without amplification (analysis done by City of Hope Molecular Pathology Core) (Geiss et al. 2008).

[3] = test system: subcutaneous murine K-luc GBM tumors; assay: NanoString mouse immune panel of subcutaneous K-luc tumors; assay type: in vivo; conditions: 50 mg/kg/day, compared with untreated controls on day 21
Source text: FIG. 23. NanoString analysis of subcutaneous K-luc tumors using the mouse immune panel. 750 mRNA concentration measurements, measured in baseline cells first at day 0 and then in subcutaneously transplanted tumors in separate mice at day 7, 14, and 21 (n=2). Sample 507 is a tumor that was not treated with ICG-001, was harvested on day 21, and is a baseline for comparison for days 7, 14, and 21. The log10 fold-change in mRNA expression was considered between 507 and the other samples.
Animal studies. Syngeneic mice (C57BL/6) of 8-12 weeks of age were implanted with subcutaneous K-Luc tumors (n=8). 7 days after, when tumors became palpable and after confirmation of the tumor presence with BLU imaging, mice were implanted with Alzet minipumps with ICG001 (50 mg/kg/day). Pumps were continuously providing a daily dose of ICG-001. Tumor tissues were harvested on days 7, 14, 21 post pump implantation and tumors were prepared for IHC (paraffin sections) and Nanostring analysis.
NanoString analysis of subcutaneous murine K-luc GBM tumors The ICG-001 and saline control treated tumors were harvested on days 7, 14, and 21. Freshly frozen K-luc tumors were used for RNA isolation and NanoString analysis to determine endogenous immune response upon treatment with ICG-001. […]

[4] = Tran and Zheng 2017; cited from earlier work
[5] = test system: tumor cell glycolytic activity; conditions: previously shown; cited from earlier work
[6] = test system: normal somatic stem cell population; conditions: preclinical studies; cited from earlier work
[7] = ICG-001 0, 5, or 10 μM, 24 h or 72 h
[8] = ICG-001 0, 5, or 10 μM, both time points

Compound: O=C1[C@H](Cc2ccc(O)cc2)N2C(=O)CCN(C(=O)NCc3ccccc3)[C@H]2CN1Cc1cccc2ccccc12 [ICG-001]
- tumor cell killing, ICG-001 in combination with IL13Rα2-CAR T cells [1]: synergistic killing
- cell cycle-related genes [2, 7]: Downregulation; also recorded: cell cycle decrease
- glutamine metabolism, ROS, mTOR, and p53 signaling [2, 7]: Upregulation
- glycolysis [2, 7]: decrease
- mitochondrial respiration [2, 7]: increased
- antigen presentation [2, 8]: increased
- immunosuppressive tryptophan/kynurenine metabolism [2, 8]: concomitant decrease
- fatty acid oxidation ([2]; all treated cell lines, all timepoints): decreased in all treated cell lines at all timepoints; also recorded: decreased in all treated cells and all timepoints
- immune pathways (mRNA) in tumor versus untreated controls [3]: concentration dependent increase in immune pathways
- blood-brain barrier crossing [4]: cross the blood-brain barrier
- glycolytic activity and extracellular acidification of tumor cells [5]: decrease in glycolytic activity and extracellular acidification
- therapy-induced toxicity [6]: ameliorated therapy-induced toxicity
